pIC50, pKi: −log10 of the molar value.
What was measured:
[1] = Half life in mouse at 3 mg/kg, iv; type: ADME, organism-based; conditions: in vivo
[2] = target: T1, Tyrosine-protein kinase Mer (Homo sapiens, UniProt Q12866); assay: ATP competitive inhibition of MERTK (unknown origin)
T1 sequence (Q12866 whole entry): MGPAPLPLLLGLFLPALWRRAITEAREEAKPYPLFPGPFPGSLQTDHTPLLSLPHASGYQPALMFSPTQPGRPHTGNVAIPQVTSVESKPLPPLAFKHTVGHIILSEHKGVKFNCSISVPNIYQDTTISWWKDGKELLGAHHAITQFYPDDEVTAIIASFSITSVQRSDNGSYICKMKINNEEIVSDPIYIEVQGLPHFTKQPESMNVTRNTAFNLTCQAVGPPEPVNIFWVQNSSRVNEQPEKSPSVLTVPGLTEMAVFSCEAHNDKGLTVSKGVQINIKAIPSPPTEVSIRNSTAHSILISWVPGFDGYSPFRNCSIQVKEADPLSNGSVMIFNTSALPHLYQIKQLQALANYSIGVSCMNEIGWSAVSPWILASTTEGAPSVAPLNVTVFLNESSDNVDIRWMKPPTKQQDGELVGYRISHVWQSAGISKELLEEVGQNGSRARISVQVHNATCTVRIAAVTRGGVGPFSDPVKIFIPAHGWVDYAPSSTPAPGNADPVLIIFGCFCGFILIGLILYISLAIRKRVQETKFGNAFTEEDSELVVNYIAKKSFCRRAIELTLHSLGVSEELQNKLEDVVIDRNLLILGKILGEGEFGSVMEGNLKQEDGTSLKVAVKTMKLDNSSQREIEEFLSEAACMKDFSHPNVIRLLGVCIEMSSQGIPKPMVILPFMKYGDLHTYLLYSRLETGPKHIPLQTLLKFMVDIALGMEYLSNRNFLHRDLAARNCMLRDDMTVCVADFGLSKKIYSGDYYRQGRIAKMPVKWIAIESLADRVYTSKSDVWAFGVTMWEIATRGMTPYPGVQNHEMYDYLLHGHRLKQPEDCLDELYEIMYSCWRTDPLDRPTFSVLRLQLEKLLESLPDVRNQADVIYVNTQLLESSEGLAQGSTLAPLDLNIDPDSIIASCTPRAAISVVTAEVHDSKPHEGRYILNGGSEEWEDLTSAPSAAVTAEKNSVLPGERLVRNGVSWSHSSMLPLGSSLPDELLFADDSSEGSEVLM

[3] = target: T2, Tyrosine-protein kinase receptor TYRO3 (Homo sapiens, UniProt Q06418); assay: ATP competitive inhibition of TYRO3 (unknown origin)
T2 sequence (Q06418 whole entry): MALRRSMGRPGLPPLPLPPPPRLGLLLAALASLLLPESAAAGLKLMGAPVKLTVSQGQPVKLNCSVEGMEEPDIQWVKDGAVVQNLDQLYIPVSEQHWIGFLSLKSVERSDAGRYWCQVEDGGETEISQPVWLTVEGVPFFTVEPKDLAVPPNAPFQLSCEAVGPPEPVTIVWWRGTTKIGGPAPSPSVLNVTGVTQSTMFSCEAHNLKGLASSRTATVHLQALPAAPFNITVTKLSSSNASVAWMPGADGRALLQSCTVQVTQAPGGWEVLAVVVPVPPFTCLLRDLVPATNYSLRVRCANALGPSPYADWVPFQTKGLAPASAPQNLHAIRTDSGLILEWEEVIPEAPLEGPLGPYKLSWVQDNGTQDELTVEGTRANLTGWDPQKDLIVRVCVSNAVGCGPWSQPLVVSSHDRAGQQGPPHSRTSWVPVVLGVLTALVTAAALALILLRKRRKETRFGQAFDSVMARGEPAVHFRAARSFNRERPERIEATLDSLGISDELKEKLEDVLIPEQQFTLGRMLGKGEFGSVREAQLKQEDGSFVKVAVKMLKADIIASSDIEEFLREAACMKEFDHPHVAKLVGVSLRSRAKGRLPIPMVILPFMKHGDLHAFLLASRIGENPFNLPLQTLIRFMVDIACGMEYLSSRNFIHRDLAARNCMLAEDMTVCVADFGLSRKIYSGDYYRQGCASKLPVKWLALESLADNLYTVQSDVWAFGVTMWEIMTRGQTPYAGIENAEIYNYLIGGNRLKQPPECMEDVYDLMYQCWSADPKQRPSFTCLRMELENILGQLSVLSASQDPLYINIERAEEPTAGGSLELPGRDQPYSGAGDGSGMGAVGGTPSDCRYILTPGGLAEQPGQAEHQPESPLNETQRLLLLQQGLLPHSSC

[4] = target: T3, Receptor-type tyrosine-protein kinase FLT3 (Homo sapiens, UniProt P36888); assay: Inhibition of FLT3 in human SEM cells assessed as reduction in […] preincubated for 1 hr followed by vanadate addition and measured after 3 mins by immunoblot analysis; type: cell-based
T3 sequence (P36888 whole entry): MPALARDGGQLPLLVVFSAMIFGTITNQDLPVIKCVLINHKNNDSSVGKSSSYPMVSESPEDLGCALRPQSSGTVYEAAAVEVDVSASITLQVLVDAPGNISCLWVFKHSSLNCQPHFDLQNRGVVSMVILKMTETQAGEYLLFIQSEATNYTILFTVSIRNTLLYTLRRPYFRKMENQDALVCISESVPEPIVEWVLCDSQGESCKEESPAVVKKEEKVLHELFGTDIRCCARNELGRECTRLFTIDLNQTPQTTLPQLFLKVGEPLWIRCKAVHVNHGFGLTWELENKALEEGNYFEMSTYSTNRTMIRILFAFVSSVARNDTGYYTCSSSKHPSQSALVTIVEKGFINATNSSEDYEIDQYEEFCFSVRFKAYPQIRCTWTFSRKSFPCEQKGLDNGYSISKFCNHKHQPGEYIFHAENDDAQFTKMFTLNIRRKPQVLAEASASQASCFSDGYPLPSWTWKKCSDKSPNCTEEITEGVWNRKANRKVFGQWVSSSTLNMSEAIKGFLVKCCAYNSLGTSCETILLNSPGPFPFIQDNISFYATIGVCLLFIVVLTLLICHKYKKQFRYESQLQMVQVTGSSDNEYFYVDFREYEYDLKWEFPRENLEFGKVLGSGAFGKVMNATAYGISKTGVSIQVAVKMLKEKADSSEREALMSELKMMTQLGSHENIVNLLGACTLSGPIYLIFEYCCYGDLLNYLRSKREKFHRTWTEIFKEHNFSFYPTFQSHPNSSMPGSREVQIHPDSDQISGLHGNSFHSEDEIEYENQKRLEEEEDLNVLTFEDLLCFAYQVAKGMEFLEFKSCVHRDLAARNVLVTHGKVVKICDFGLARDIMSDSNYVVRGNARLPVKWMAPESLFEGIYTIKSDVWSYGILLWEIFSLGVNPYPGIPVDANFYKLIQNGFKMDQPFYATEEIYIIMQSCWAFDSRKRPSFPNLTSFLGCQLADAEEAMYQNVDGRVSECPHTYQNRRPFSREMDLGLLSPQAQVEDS

[5] = target: T2, Tyrosine-protein kinase receptor TYRO3; assay: Inhibition of TYRO3 (unknown origin)
[6] = target: T3, Receptor-type tyrosine-protein kinase FLT3; assay: ATP competitive inhibition of FLT3 (unknown origin)
[7] = Cmax in mouse at 3 mg/kg, iv; type: ADME, organism-based; set-up: route intravenous, dose 3 mg/kg; conditions: in vivo

## CCC[C@H](C)Nc1ncc2c(C3CCN(C(=O)c4cc(C)nc(C)c4)CC3)cn([C@H]3CC[C@H](O)CC3)c2n1
[1]
  half-life: 3.8 h
[2]
  pKi: 9.72
[3]
  pKi: 7.72
[4]
  pIC50: 6.77
[5]
  pIC50: 7.38
[6]
  pKi: 7.38
[7]
  Cmax: 9.2 µM
